# Measurements taken from paper PMC9650263, “Synthesis and appraisal of dalbergin-loaded PLGA nanoparticles modified with galactose against hepatocellular carcinoma: In-vitro, pharmacokinetic, and in-silico studies” (Frontiers in Pharmacology, 2022).
# Assays:
# HepG2 cell line = test: SRB growth inhibition assay, anticancer efficacy; type: cell-based; conditions: Homo sapiens, HepG2, 48 h, 10-80 μg/ml, read-out: GI50 (growth inhibitory concentration)
# Description: National Cell Repository of NCCS (Pune, India) provided the HepG2 cell line, which was then grown in our cell culture lab for further in vitro assays. The liver cancer cell lines were grown in a T-75 flask for 24 h at 37°C, 5% CO2, and absolute humidity equal to 100% in the Roswell Park Memorial Institute (RPMI)-1640 media with 10% fetal bovine serum and 2 mM L-glutamine. The cells were collected by centrifugation and incubated at a density of 5×10^3 cells/well onto 96 well plates to measure the growth. The test samples were distributed in dimethyl sulfoxide at 100 mg/ml concentration, diluted to 1 mg/ml equivalent drug concentration in distilled H2O. […] After removing the attached dye with 10 mM Trizma base, absorbance was measured at 540 nm using a 690 nm reference. The findings were acquired in triplicate on different plates, and the mean of the three trials was determined. The % cell growth was measured using absorbance data (time zero [Tz], control growth (C), and test growth in the presence of drug at different concentrations [Ti]. The % growth inhibition was calculated using the following formula Ti−Tz/C−Tz×100 for concentrations for which Ti≥Tz […]
# It was shown that the quantity of protein formation was reduced by 50% at a medication concentration of […]. […]
# [1] = In vitro drug release study; type: physicochemical; conditions: up to 48 h, 37°C; media pH 1.2 and 7.4 described, medium of the values not stated
# Description: At pH values of 1.2 and 7.4, the drug release perspectives of DLF and DLMF were studied in both simulated gastric and simulated intestinal fluids. A flask was placed in an incubator with a water bath continually swirling (100 rev/min) and kept at a temperature of 37°C. The flask was filled with 10 ml of the appropriate medium and weighed amounts of DLF and DLMF that were sufficient for 10 mg of DL. The dissolving solution in the flask was then routinely replaced with new media at regular intervals, after which 2 ml of the sample was collected for DL detection. The samples were analyzed at 254 nm using a UV-Vis Spectrometer (Labtronics-2910, India), which was utilized to quantify the DL release. Triplicate dissolution tests were carried out. The data was analyzed to determine release kinetics ([Song, X., et al., 2018]; [Kanoujia, J., et al., 2021]; [Song, X., et al., 2019]; [Kumar, P., et al., 2018]).
# [2] = Oral pharmacokinetic study, HPLC quantification in plasma; type: in vivo, albino Wistar rats; conditions: rat plasma, DL equivalent 100 mg/kg
# Description: DL, DLF, and DLMF were administered orally to albino Wistar rats at a dose of DL equivalent to 100 mg/kg (Approval No: IU/IAEC/20/01), and after the first treatment, the blood samples were collected through retro-orbital plexus of the animals at 0.083, 0.25, 0.5, 1, 2, 4, 8, 12, 16, 24, and 48 h. The serum was isolated from the blood by centrifugation for 10 min at 10,000 rpm. The serum samples were kept at -20 °C until quantification by HPLC analysis.
# A precise and accurate bioanalytical approach was devised for drug quantification in plasma samples. ACN was used to make 1 mg/ml stock solution of DL, and stock solution in ACN was used to make working standard solutions of 0.02, 0.1, 0.2, 0.5, 1, 2, 5, 10, 50, and 100 μg/ml. Overall, separate tubes containing 100 […] and 100 […] were vortexed for 30 min. The tubes were then spun at 13,000 rpm for 5 min. The supernatant was collected, transferred to fresh tubes, and allowed to dry overnight at a temperature of 40°C. After that, the tubes were reconstituted with 100 μL of ACN, vortexed for 5 minutes, and 20 μL of supernatant was injected into HPLC to quantify DL. The working solution concentrations were 0.01, 0.05, 0.1, 0.25, 0.5, 1, 2.5, 5.0, 25.0, and 50.0 μg/ml. Low-quality control (LQC), medium quality control (MQC), and high-quality control (HQC) samples were created with different quantities of 0.005, 0.5, and 40 μg/ml, respectively. It was necessary to create quality control samples and triplicate calibrations for each concentration. A test tube containing 100 μL of test plasma and 100 μL of ACN was vortexed for 30 min to create the test samples. To assess the final outcomes, WinNonlin version 1.5.3 was used ([Nisha et al., 2020a]; [Kumar, P., et al., 2018]; [Nisha et al., 2020b]).
structure (smiles),measurement,setting,value
"COc1cc2oc(=O)cc(-c3ccccc3)c2cc1O [DL, 6-hydroxy-7-methoxy-4-phenyl-2H-cromen-2-one]",GI50,HepG2 cell line,20 µg/mL
same,cumulative discharge (in vitro release),[1],around 40.97 ± 3.01%
same,AUC(0-inf),[2]; albino Wistar,244 ± 10.3 µg·h/mL
same,Cmax,[2]; albino Wistar,23100 ± 840 ng/mL
same,MRT,[2]; albino Wistar,11.5 ± 1.01 h
same,Tmax,[2]; albino Wistar,4 h
same,half-life,[2]; albino Wistar,9.63 h
same,AUMC,[2],2806.95 µg.h^2/ml
